In ChEMBL document CHEMBL1201862, “PubChem BioAssay data set” (2004):
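Values below derive from 48-hour exposures of cells grown in 96-well plates, with endpoints linearly interpolated between the two concentrations bracketing the appropriate inhibition level. At the GI50, growth is halved.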 Activity calls are given as the source filed them. No stated cut-off is given here; in the data, active = GI50 up to about 1.1 µM and inactive = higher.

Columns and labels:
Test in all cases: growth of human tumour cells (NCI), 48 h
SK-OV-3 = test system: SK-OV-3
SR = test system: SR
ACHN = test system: ACHN
A549 = test system: A549
DU-145 = test system: DU-145
Malme-3M = test system: Malme-3M
SW-620 = test system: SW-620
SK-MEL-28 = test system: SK-MEL-28
RXF 393 = test system: RXF 393
A498 = test system: A498
M14 = test system: M14
NCI-H460 = test system: NCI-H460
UACC-257 = test system: UACC-257
OVCAR-8 = test system: OVCAR-8
K562 = test system: K562
EKVX = test system: EKVX
HOP-62 = test system: HOP-62
NCI-H226 = test system: NCI-H226
TK-10 = test system: TK-10

Measured: GI50

CN(C)c1ncnc2c1ncn2C1C=CC(COS(N)(=O)=O)C1 (stereo not given)
inactive: SK-OV-3 > 100 µM | SR > 100 µM | ACHN > 100 µM | A549 > 100 µM | DU-145 > 100 µM | Malme-3M > 100 µM | SW-620 > 100 µM | SK-MEL-28 > 100 µM | RXF 393 66.1 µM | A498 > 100 µM | M14 > 100 µM | NCI-H460 > 100 µM | UACC-257 > 100 µM | OVCAR-8 83.6 µM | K562 82.4 µM | EKVX > 100 µM | HOP-62 > 100 µM

COC(=O)c1ccccc1/C=C1\Cc2ccc(C)c(C)c2C1=O
inactive: SR > 100 µM | ACHN > 100 µM | A549 > 100 µM | DU-145 > 100 µM | Malme-3M > 100 µM | SW-620 > 100 µM | SK-MEL-28 > 100 µM | NCI-H226 > 100 µM | RXF 393 > 100 µM | TK-10 > 100 µM | A498 > 100 µM | M14 > 100 µM | NCI-H460 > 100 µM | UACC-257 > 100 µM | OVCAR-8 > 100 µM | K562 > 100 µM | EKVX > 100 µM | HOP-62 59.8 µM

CCOC(=O)C(NC(=O)C(CCCCNP(=O)(OCC)OCC)NC(=O)C(C)NC(C)=O)C(C)C (stereo not given)
inactive: SR > 100 µM | ACHN > 100 µM | A549 > 100 µM | DU-145 > 100 µM | Malme-3M > 100 µM | SW-620 > 100 µM | SK-MEL-28 > 100 µM | NCI-H226 > 100 µM | RXF 393 > 100 µM | TK-10 > 100 µM | A498 80.7 µM | M14 > 100 µM | NCI-H460 > 100 µM | UACC-257 > 100 µM | OVCAR-8 > 100 µM | K562 > 100 µM | EKVX > 100 µM | HOP-62 > 100 µM

NC(Cc1ccc(OCc2ccccc2)cn1)C(=O)OCc1ccccc1 (stereo not given)
inactive: SR > 100 µM | ACHN > 100 µM | A549 > 100 µM | DU-145 > 100 µM | Malme-3M > 100 µM | SW-620 > 100 µM | SK-MEL-28 > 100 µM | NCI-H226 > 100 µM | RXF 393 > 100 µM | TK-10 > 100 µM | A498 > 100 µM | NCI-H460 > 100 µM | UACC-257 > 100 µM | OVCAR-8 > 100 µM | K562 > 100 µM | EKVX > 100 µM | HOP-62 > 100 µM
